Tested on: MC38-SIY tumor cells
Assay: IFNγ-ELISpot of splenocytes from mice implanted with PRR agonist-coated tumor cells
Type: in vivo
Procedure: Tumor cell lines were cultured at 37° C. and 5% CO2 in DMEM (Gibco) supplemented with 10% FBS (Atlanta Biologicals), 1% penicillin/streptomycin (Gibco), and 1×HEPES (Gibco). Tumor cells were harvested by trypsinization (Gibco) and washed 3 times with PBS (Gibco). Cells were resuspended in PBS, and 2×10^6 tumor cells were injected subcutaneously into the flanks of mice. For experiments with pattern recognition receptor (PRR) agonist coating, 2×10^6 tumor cells were resuspended with 50 μg naked Poly(I:C) HMW (InvivoGen), DMXAA (InvivoGen), or Pam2CSK4 (InvivoGen) in PBS and injected subcutaneously into the flanks of mice. All PRR agonists were added to cells without a transfection reagent. For experiments with fixed tumor cells, the cells were fixed with 4% paraformaldehyde (Electron Microscopy Sciences) for 10 minutes at RT, washed twice and resuspended with PBS, and 2×10^6 tumor cells were injected subcutaneously into the flanks of mice. Tumor area measurements (calculated as length×width) were collected 2-3 times a week until the endpoint of the study. Data not shown but available upon request—Details on experimental cohorts, the raw data, as well as the power calculations for all tumor outgrowth experiments.
ELISpot plates (EMD Millipore) were coated overnight at 4° C. with anti-IFNγ (BD Biosciences). Plates were washed and blocked with DMEM supplemented with 10% FBS, 1% penicillin/streptomycin, and 1×HEPES for 2 hours at room temperature (RT). Spleens were harvested from mice at day 5 or day 7 post-tumor inoculation and mashed through a 70 μm filter with a 1 mL syringe plunger to generate a single cell suspension. Red blood cells were lysed with 500 μL of ACK Lysing Buffer (Gibco) on ice for 2 minutes. Splenocytes were washed 3 times with chilled PBS and 1×10^6 cells were assayed per well in the presence or absence of 160 nM SIY peptide or 100 ng/mL PMA (Sigma-Aldrich) and 1 μg/mL ionomycin (Sigma-Aldrich) as a positive control. Plates were developed the next day using the BD mouse IFNγ-ELISpot kit, following manufacturer's protocol.

polyinosinic-polycytidylic acid [Poly(I:C)]
induction of antigen-specific T cell responses (IFNγ-ELISpot) (Poly(I:C)-coated 4% PFA-fixed MC38-SIY tumor cells): failed to induce any antigen-specific T cell responses
antigen-specific T cell responses restored, as share of the priming responses observed in WT mice (IFNγ-ELISpot) (Poly(I:C)-coated MC38-SIY tumor cells implanted in Batf3−/− mice, day 7 post-tumor inoculation, 50 μg per 2×10^6 cells): 45.0%
restoration of T cell responses (IFNγ-ELISpot) (Poly(I:C)-coated MHC class I-deficient (β2M−/−) MC38-SIY tumor cells, Batf3−/− mice): no restoration

Reference: patent US12061186B2, “Compositions and methods for using cross-dressing to enhance anti-tumor immune responses” (Massachusetts Institute of Technology, priority 2020, dated 2024)
